The subject of series [1] is prolyl-4-hydroxylase activity capable of modifying a proline-containing peptide derived from the ODD. The conditions noted are these: cited from earlier work.
For series [2], the target named is T1, HPH 2 (Homo sapiens, UniProt Q9GZT9, DEL76-177).
T1 construct: MBP (N); made in house; host or cells: E. coli BL21-CodonPlus-RIL
The series can be described thus: Activity of purified recombinant HPH 2 on HIF-1a peptide substrate. Format: biochemical. The conditions noted are these: additive added (CoCl2 in excess).

Series [3] deals with human HIF-1a ODD peptide (Homo sapiens, UniProt Q16665, M561A/M568A). As to the kind of experiment: [35S]-pVHL pull-down prolyl hydroxylase assay with biotinylated HIF-1a ODD peptide. The conditions noted are these: enzyme in vitro transcribed/translated in rabbit reticulocyte lysate; ascorbate, 2-oxoglutarate, FeSO4 present. Format: biochemical.

Counter-ions that a name gives are not always drawn. Like-named read-outs stand apart in the source and are kept apart here.

T1 sequence (Q9GZT9 with tags, fused parts or gaps DEL76-177): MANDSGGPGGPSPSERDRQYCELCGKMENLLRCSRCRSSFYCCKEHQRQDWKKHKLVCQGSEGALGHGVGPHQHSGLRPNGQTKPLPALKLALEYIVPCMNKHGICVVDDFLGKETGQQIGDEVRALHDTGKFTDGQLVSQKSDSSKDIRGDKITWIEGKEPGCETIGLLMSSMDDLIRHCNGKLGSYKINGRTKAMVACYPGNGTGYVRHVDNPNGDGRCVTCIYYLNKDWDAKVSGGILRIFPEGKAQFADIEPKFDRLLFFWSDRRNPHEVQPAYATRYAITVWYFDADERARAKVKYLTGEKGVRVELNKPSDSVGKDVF

In the case of `CC(=O)N(O)CCCCCNC(=O)CCC(=O)N(O)CCCCCNC(=O)CCC(=O)N(O)CCCCCN` [deferoxamine mesylate], in series [1] (extracts prepared in the presence of hypoxia mimics), the “prolyl-4-hydroxylase activity in extracts” value is “greatly diminished”.
As to `O=S(=O)([O-])[O-].[Fe+2]` [FeSO4], the “effect on activity of the HPH 2 enzyme” value in series [2] is given as “greatly stimulated”.
As to “HPH 3: human HPH 1 paralog, Genbank BC001723”, the “prolyl hydroxylase activity (pVHL association with the biotinylated peptide)” value in series [3] is reported as “catalyze the hydroxylation”.
Turning to CoCl2, the “prolyl-4-hydroxylase activity in extracts” value in series [1] is listed as “greatly diminished”.

(Values after US6566088B1, “Prolyl-4-hydroxylases” (Board of Regents, The University of Texas System, priority 2001, dated 2003).)
